Data: the NIST ThermoML archive (doi:10.1021/je5000132)

Tests used:
[1] = for speed of sound: 100 kPa, Pulse-echo method; for speed of sound / viscosity / mass density: Liquid; for viscosity / mass density: 101 kPa; for viscosity: Concentric cylinders viscometry; for mass density: Vibrating tube method; for surface tension liquid-gas: 294.7 K, Drop volume
[2] = xn = mol fraction of the nth substance listed; settings: x2 = 0; for speed of sound: 100 kPa, Pulse-echo method; for speed of sound / viscosity / mass density: Liquid; for viscosity / mass density: 101 kPa; for viscosity: Concentric cylinders viscometry; for mass density: Vibrating tube method; for surface tension liquid-gas: 294.7 K, Drop volume

CC(CC(C)(C)C)CC(C)(C)CC(C)(C)C (configuration not stated) [2,2,4,4,6,8,8-heptamethylnonane]
[1]
Settings | mass density [kg/m3] | speed of sound [m/s] | viscosity [mPa·s]
293.15 K | 784.457 | 1285.7 | 3.7
303.15 K | 777.761 | 1248.5 | 2.92
313.15 K | 771.044 | 1211.8 | 2.37
323.15 K | 764.316 | 1176 | 1.95
333.15 K | 757.571 | 1140.8 | 1.63
343.15 K | 750.7 | – | 1.39
353.15 K | 743.8 | – | 1.19
363.15 K | 736.8 | – | 1.04
373.15 K | 729.9 | – | 0.914

Settings | surface tension liquid-gas [mN/m]
[1] | 24

CC(CC(C)(C)C)CC(C)(C)C [2,2,4,6,6-pentamethylheptane]
[1]
Settings | speed of sound [m/s]
293.15 K | 1203.6
303.15 K | 1164.8
313.15 K | 1126.7
323.15 K | 1089.3
333.15 K | 1052.5

Settings | surface tension liquid-gas [mN/m]
[1] | 21.8

CCCCCCCCCCCC [dodecane]
[1]
Settings | mass density [kg/m3] | speed of sound [m/s] | viscosity [mPa·s]
293.15 K | 748.893 | 1297.6 | 1.49
303.15 K | 741.635 | 1259.3 | 1.25
313.15 K | 734.349 | 1221.4 | 1.06
323.15 K | 727.038 | 1184.2 | 0.916
333.15 K | 719.691 | 1147.5 | 0.799
343.15 K | 712.2 | – | 0.704
353.15 K | 704.7 | – | 0.625
363.15 K | 697.1 | – | 0.56
373.15 K | 689.6 | – | 0.506

Settings | surface tension liquid-gas [mN/m]
[1] | 25.3

CCCCCCCCCCCC [dodecane] + CC(CC(C)(C)C)CC(C)(C)C
[2]
Settings | mass density [kg/m3] | speed of sound [m/s] | viscosity [mPa·s]
293.15 K | 748.893 | 1297.6 | 1.49
303.15 K | 741.635 | 1259.3 | 1.25
313.15 K | 734.349 | 1221.4 | 1.06
323.15 K | 727.038 | 1184.2 | 0.916
333.15 K | 719.691 | 1147.5 | 0.799
343.15 K | 712.2 | – | 0.704
353.15 K | 704.7 | – | 0.625
363.15 K | 697.1 | – | 0.56
373.15 K | 689.6 | – | 0.506

Settings | surface tension liquid-gas [mN/m]
[2] | 25.3

CCCCCCCCCCCC [dodecane] + CC(CC(C)(C)C)CC(C)(C)CC(C)(C)C
[2]
Settings | mass density [kg/m3] | speed of sound [m/s] | viscosity [mPa·s]
293.15 K | 748.893 | 1297.6 | 1.49
303.15 K | 741.635 | 1259.3 | 1.25
313.15 K | 734.349 | 1221.4 | 1.06
323.15 K | 727.038 | 1184.2 | 0.916
333.15 K | 719.691 | 1147.5 | 0.799
343.15 K | 712.2 | – | 0.704
353.15 K | 704.7 | – | 0.625
363.15 K | 697.1 | – | 0.56
373.15 K | 689.6 | – | 0.506

Settings | surface tension liquid-gas [mN/m]
[2] | 25.3
